We go through one substance from patent US20050147698A1, “Co-beadlet of dha and rosemary and methods of use” (Alcon, Inc., priority 2003, published 2005).

This experiment relates to retinas. Put plainly: protection of retinas from acute light-induced toxicity. It is filed as in vivo. To be noted: no data or method given.

As for Vitamin E, the “protection of retinas from acute light-induced toxicity” value is recorded as “effective in protecting retinas from acute light-induced toxicity”.
